Reference: publication PMC4685510, “A Cell Biologist’s Field Guide to Aurora Kinase Inhibitors” (Frontiers in Oncology, 2015)

Experiments:
Test in all cases: biochemical
Type in all cases: biochemical
[1] = molecular target: 363 human kinases (including Aurora A/B/C) (Homo sapiens, UniProt Q9UK32); conditions: RSK4; for remaining activity at 0.1 µM: 100 nM; for remaining activity at 0.1 µM / remaining activity at 0.5 µM: read-out: % Enzyme Activity (relative to DMSO controls)
Text: (§1) However, the Aurora A/B selectivity ratios derived from our in vitro and in vivo data can be compared to prioritize inhibitors.

[2] = molecular target: T1, 363 human kinases (including Aurora A/B/C) (Homo sapiens, UniProt Q32MK0); conditions: MYLK3; for remaining activity at 0.1 µM: 100 nM; for remaining activity at 0.1 µM / remaining activity at 0.5 µM: read-out: % Enzyme Activity (relative to DMSO controls)
T1 sequence (Q32MK0 1-819): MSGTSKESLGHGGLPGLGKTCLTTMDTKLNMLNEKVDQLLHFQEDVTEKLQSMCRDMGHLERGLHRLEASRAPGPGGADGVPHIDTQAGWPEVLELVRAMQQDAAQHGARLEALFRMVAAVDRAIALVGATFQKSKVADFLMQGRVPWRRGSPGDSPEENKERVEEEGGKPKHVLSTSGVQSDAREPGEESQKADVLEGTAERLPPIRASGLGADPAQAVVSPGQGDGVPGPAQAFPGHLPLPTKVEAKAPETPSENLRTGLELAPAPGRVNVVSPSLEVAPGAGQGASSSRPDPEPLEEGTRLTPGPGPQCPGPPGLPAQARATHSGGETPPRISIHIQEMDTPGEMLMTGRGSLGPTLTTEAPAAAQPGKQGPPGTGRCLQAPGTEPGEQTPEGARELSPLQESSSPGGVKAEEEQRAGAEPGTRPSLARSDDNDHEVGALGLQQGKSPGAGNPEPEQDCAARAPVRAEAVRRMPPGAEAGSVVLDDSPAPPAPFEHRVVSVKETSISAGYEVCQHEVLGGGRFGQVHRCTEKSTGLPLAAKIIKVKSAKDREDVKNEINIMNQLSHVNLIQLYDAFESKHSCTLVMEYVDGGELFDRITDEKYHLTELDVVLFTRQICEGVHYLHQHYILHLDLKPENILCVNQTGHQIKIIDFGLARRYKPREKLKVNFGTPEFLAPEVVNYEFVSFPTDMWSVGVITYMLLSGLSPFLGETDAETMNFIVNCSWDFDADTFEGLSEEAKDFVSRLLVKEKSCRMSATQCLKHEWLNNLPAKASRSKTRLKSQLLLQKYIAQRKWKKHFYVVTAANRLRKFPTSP
Text: as §1

[3] = molecular target: 363 human kinases (including Aurora A/B/C) (Homo sapiens, UniProt Q9BUB5); conditions: MNK1; for remaining activity at 0.1 µM: 100 nM; for remaining activity at 0.1 µM / remaining activity at 0.5 µM: read-out: % Enzyme Activity (relative to DMSO controls)
Chain of 363 human kinases (including Aurora A/B/C) (Homo sapiens, UniProt Q9BUB5) (Q9BUB5 whole entry): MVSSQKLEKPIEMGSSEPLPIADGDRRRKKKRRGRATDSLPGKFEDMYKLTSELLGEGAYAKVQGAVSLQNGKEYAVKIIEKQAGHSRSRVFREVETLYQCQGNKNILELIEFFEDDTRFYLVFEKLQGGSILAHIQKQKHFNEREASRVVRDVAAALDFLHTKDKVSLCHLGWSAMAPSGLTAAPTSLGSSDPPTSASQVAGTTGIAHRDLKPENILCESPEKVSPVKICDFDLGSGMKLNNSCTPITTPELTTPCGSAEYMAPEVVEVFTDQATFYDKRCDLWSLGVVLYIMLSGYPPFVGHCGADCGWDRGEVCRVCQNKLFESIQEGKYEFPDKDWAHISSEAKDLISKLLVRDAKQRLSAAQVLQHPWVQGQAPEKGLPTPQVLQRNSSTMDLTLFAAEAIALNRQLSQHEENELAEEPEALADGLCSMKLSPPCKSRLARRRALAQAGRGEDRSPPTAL
Text: as §1

[4] = molecular target: 363 human kinases (including Aurora A/B/C) (Homo sapiens, UniProt Q96NX5); conditions: CAMK1g, [ATP] 30 µM; for remaining activity at 0.1 µM: 100 nM; for remaining activity at 0.1 µM / remaining activity at 0.5 µM: read-out: % Enzyme Activity (relative to DMSO controls)
Chain of 363 human kinases (including Aurora A/B/C) (Homo sapiens, UniProt Q96NX5) (Q96NX5 whole entry): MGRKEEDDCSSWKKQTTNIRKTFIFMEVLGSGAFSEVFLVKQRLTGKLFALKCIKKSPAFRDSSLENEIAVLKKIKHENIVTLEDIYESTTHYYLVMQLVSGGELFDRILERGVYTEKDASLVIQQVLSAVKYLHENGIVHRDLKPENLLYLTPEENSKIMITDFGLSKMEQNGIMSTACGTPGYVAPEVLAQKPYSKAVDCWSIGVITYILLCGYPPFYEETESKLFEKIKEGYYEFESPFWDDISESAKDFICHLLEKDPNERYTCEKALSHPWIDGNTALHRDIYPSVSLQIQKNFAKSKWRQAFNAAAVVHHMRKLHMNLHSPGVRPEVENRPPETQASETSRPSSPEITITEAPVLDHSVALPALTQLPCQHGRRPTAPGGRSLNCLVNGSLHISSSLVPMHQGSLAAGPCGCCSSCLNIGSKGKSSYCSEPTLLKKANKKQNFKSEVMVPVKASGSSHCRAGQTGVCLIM
Text: as §1

[5] = molecular target: 363 human kinases (including Aurora A/B/C) (Homo sapiens, UniProt P17948); conditions: FLT1/VEGFR1, [ATP] 2.5 µM; for remaining activity at 0.1 µM: 100 nM; for remaining activity at 0.1 µM / remaining activity at 0.5 µM: read-out: % Enzyme Activity (relative to DMSO controls)
Chain of 363 human kinases (including Aurora A/B/C) (Homo sapiens, UniProt P17948) (P17948 27-1338): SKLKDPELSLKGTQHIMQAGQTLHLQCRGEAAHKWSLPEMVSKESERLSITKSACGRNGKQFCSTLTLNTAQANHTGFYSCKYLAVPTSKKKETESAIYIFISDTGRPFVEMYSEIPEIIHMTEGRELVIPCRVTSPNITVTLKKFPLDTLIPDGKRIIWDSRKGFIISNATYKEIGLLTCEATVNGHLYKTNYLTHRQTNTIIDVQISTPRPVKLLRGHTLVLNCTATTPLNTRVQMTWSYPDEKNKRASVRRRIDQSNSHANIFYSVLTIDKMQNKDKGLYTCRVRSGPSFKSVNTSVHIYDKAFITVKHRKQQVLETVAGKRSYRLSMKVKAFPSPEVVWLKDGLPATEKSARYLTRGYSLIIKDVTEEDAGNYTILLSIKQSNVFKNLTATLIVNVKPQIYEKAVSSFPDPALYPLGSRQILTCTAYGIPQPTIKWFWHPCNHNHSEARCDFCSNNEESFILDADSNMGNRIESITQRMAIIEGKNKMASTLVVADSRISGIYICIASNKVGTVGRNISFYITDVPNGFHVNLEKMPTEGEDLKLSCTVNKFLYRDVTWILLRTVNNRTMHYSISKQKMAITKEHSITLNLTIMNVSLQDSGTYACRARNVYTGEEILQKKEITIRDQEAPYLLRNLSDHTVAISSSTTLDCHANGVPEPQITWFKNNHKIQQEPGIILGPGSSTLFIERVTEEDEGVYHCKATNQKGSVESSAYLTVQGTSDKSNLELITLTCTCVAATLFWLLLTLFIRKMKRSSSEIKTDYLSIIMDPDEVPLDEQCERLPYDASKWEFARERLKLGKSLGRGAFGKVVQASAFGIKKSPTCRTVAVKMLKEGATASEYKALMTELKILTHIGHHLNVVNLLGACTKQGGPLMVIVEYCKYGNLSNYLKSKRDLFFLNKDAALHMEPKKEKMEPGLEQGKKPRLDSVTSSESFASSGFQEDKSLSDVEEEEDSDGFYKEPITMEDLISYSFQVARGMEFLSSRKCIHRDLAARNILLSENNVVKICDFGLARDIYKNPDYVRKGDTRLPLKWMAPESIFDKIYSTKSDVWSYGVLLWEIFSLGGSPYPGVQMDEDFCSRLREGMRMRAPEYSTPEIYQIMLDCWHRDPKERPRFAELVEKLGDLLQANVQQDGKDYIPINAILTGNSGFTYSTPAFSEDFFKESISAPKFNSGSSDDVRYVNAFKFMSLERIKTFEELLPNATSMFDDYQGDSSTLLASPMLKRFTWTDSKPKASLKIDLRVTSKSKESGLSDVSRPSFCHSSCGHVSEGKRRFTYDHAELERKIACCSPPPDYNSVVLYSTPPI
Text: as §1

[6] = molecular target: 363 human kinases (including Aurora A/B/C) (Homo sapiens, UniProt P28482); conditions: ERK2/MAPK1, [ATP] 50 µM; for remaining activity at 0.1 µM: 100 nM; for remaining activity at 0.1 µM / remaining activity at 0.5 µM: read-out: % Enzyme Activity (relative to DMSO controls)
Chain of 363 human kinases (including Aurora A/B/C) (Homo sapiens, UniProt P28482) (P28482 whole entry): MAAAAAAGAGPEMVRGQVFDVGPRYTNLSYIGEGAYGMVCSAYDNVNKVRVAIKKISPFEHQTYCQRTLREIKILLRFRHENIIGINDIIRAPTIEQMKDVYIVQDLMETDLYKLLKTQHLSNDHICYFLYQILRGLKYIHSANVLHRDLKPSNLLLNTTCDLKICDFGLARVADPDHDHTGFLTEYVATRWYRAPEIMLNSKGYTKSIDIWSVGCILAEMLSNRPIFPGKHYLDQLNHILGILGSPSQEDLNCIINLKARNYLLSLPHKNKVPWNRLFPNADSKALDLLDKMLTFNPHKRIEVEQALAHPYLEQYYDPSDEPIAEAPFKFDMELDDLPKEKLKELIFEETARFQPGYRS
Text: as §1

[7] = molecular target: T2, 363 human kinases (including Aurora A/B/C) (Homo sapiens, UniProt O15111); conditions: IKKa/CHUK; for remaining activity at 0.1 µM: 100 nM; for remaining activity at 0.1 µM / remaining activity at 0.5 µM: read-out: % Enzyme Activity (relative to DMSO controls)
T2 sequence (O15111 1-745): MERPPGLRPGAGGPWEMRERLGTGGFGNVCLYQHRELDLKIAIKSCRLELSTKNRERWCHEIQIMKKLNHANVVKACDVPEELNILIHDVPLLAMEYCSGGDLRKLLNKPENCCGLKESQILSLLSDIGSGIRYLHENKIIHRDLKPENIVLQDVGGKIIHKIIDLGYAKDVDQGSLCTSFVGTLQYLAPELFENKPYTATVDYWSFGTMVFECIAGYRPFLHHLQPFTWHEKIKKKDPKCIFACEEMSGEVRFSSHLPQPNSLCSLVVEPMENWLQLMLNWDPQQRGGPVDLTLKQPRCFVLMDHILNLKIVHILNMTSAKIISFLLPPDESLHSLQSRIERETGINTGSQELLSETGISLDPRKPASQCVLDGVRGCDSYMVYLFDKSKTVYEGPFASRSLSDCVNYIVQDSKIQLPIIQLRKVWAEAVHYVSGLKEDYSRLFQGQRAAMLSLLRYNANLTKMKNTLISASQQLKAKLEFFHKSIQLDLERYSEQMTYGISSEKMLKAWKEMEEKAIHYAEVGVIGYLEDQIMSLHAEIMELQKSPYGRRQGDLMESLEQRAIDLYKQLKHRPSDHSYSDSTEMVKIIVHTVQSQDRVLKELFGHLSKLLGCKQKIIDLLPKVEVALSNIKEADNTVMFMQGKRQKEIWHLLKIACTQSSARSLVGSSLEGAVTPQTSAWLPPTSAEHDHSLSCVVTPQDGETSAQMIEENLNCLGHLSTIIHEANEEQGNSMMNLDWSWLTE
Text: as §1

[8] = molecular target: 363 human kinases (including Aurora A/B/C) (Homo sapiens, UniProt Q86UE8); conditions: TLK2; for remaining activity at 0.1 µM: 100 nM; for remaining activity at 0.1 µM / remaining activity at 0.5 µM: read-out: % Enzyme Activity (relative to DMSO controls)
Chain of 363 human kinases (including Aurora A/B/C) (Homo sapiens, UniProt Q86UE8) (Q86UE8 whole entry): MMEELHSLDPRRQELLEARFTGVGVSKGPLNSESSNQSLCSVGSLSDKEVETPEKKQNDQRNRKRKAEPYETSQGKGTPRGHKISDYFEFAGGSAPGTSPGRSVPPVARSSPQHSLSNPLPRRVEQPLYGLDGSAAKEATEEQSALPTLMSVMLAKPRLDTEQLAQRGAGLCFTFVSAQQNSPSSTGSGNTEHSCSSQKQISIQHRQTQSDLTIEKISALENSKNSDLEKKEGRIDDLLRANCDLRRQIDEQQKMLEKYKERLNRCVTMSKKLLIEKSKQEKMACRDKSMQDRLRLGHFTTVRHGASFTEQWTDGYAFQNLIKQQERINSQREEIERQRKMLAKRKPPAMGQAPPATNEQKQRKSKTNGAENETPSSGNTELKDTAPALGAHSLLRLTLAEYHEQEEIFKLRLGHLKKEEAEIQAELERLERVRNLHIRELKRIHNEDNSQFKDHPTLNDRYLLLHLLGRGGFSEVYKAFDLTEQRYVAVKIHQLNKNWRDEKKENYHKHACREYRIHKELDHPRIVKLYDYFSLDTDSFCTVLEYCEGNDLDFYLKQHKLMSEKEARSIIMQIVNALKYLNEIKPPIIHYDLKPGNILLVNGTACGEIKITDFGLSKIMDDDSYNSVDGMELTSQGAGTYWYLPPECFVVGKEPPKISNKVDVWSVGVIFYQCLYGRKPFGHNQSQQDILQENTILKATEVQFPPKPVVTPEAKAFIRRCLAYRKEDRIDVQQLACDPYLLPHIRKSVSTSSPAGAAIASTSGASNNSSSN
Text: as §1

[9] = molecular target: 363 human kinases (including Aurora A/B/C) (Homo sapiens, UniProt P36507); conditions: MEK2; for remaining activity at 0.1 µM: 100 nM; for remaining activity at 0.1 µM / remaining activity at 0.5 µM: read-out: % Enzyme Activity (relative to DMSO controls)
Chain of 363 human kinases (including Aurora A/B/C) (Homo sapiens, UniProt P36507) (P36507 whole entry): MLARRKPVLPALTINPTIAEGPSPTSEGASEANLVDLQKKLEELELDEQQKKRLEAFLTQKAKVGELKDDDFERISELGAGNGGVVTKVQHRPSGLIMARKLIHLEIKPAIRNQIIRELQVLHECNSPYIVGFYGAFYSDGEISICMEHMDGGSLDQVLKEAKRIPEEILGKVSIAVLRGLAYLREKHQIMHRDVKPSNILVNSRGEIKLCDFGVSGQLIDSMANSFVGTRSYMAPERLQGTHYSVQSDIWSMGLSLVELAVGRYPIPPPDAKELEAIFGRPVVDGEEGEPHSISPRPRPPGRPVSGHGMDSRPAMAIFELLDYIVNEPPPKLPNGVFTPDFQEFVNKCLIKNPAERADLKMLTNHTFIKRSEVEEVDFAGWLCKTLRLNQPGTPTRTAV
Text: as §1

[10] = molecular target: T3, 363 human kinases (including Aurora A/B/C) (Homo sapiens, UniProt P20794); conditions: MAK; for remaining activity at 0.1 µM: 100 nM; for remaining activity at 0.1 µM / remaining activity at 0.5 µM: read-out: % Enzyme Activity (relative to DMSO controls)
T3 sequence (P20794 1-623): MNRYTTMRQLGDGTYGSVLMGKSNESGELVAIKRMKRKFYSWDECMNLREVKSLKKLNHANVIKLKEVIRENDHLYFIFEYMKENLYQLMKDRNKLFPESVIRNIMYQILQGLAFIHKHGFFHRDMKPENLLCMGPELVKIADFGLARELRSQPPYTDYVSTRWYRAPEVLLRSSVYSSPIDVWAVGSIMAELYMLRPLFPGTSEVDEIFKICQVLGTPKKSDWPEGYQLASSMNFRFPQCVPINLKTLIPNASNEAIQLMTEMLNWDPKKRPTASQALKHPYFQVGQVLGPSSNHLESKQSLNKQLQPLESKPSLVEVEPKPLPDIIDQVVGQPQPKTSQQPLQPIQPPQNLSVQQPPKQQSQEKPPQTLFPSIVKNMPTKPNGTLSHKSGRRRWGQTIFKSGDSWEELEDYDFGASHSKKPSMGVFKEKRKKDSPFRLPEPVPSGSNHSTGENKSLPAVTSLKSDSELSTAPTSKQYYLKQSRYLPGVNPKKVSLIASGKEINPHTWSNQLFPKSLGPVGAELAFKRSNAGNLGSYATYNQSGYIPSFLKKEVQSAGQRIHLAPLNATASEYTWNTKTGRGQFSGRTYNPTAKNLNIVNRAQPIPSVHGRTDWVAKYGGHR
Text: as §1

Chain of 363 human kinases (including Aurora A/B/C) (Homo sapiens, UniProt Q9UK32) (Q9UK32 whole entry): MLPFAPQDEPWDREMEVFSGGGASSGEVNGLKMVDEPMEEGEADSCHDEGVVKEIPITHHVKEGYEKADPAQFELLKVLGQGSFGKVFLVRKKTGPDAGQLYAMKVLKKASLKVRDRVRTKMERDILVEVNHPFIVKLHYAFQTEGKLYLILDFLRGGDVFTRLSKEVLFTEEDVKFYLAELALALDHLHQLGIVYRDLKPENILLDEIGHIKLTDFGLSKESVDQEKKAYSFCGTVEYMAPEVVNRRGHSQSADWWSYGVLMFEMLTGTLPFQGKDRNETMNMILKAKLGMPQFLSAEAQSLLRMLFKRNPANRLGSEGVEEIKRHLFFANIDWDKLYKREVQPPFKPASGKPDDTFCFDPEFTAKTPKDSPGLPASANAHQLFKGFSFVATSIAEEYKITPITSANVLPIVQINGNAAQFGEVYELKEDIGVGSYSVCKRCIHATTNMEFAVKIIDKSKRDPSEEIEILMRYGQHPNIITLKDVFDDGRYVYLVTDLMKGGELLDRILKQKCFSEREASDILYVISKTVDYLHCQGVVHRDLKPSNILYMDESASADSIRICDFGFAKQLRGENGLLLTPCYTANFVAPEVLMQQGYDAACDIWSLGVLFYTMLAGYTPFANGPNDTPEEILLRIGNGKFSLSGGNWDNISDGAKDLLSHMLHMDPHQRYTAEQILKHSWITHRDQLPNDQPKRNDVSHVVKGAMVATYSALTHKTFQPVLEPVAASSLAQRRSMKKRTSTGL

CCn1cc(-c2ccnc3[nH]c(-c4cccc(CN(C)C)c4)cc23)c(-c2ccc(NC(=O)N(C)C)cc2)n1 [GSK1070916]
remaining activity at 0.1 µM [1]: 93.6%
remaining activity at 0.1 µM [2]: 102%
remaining activity at 0.1 µM [3]: 113%
remaining activity at 0.1 µM [4]: 96.3%
remaining activity at 0.1 µM [5]: 64.4%
remaining activity at 0.1 µM [6]: 101%
remaining activity at 0.1 µM [7]: 126%
remaining activity at 0.1 µM [8]: 100%
remaining activity at 0.1 µM [9]: 98.2%
remaining activity at 0.1 µM [10]: 100%

O=C(O)[C@]1(Cc2cccc(Nc3nccs3)n2)CC[C@@H](Oc2cccc(Cl)c2F)CC1 [MK-5108]
remaining activity at 0.1 µM [1]: 94.2%
remaining activity at 0.5 µM ([1]; 500 nM): 90.1%
remaining activity at 0.1 µM [2]: 97.3%
remaining activity at 0.5 µM ([2]; 500 nM): 99.7%
remaining activity at 0.1 µM [3]: 105%
remaining activity at 0.5 µM ([3]; 500 nM): 116%
remaining activity at 0.1 µM [4]: 100%
remaining activity at 0.5 µM ([4]; 500 nM): 93.7%
remaining activity at 0.1 µM [5]: 58.4%
remaining activity at 0.5 µM ([5]; 500 nM): 29.5%
remaining activity at 0.1 µM [6]: 98.4%
remaining activity at 0.5 µM ([6]; 500 nM): 106%
remaining activity at 0.1 µM [7]: 118%
remaining activity at 0.5 µM ([7]; 500 nM): 113%
remaining activity at 0.1 µM [8]: 111%
remaining activity at 0.5 µM ([8]; 500 nM): 98.3%
remaining activity at 0.1 µM [9]: 95.6%
remaining activity at 0.5 µM ([9]; 500 nM): 90.3%
remaining activity at 0.1 µM [10]: 84.8%
remaining activity at 0.5 µM ([10]; 500 nM): 79.5%

O=C(c1cccc(Cl)c1F)N1CCN(Cc2cccc(Nc3nccs3)n2)CC1 [MK-8745]
% Enzyme Activity (relative to DMSO controls) ([1]; 500 nM): 94.73%
remaining activity at 0.5 µM ([1]; 500 nM): 97.1%
% Enzyme Activity (relative to DMSO controls) ([2]; 500 nM): 102.40%
remaining activity at 0.5 µM ([2]; 500 nM): 103%
% Enzyme Activity (relative to DMSO controls) ([3]; 500 nM): 107.37%
remaining activity at 0.5 µM ([3]; 500 nM): 107%
% Enzyme Activity (relative to DMSO controls) ([4]; 500 nM): 91.44%
remaining activity at 0.5 µM ([4]; 500 nM): 91.9%
% Enzyme Activity (relative to DMSO controls) ([5]; 500 nM): 90.99%
remaining activity at 0.5 µM ([5]; 500 nM): 93.4%
% Enzyme Activity (relative to DMSO controls) ([6]; 500 nM): 103.36%
remaining activity at 0.5 µM ([6]; 500 nM): 104%
% Enzyme Activity (relative to DMSO controls) ([7]; 500 nM): 107.82%
remaining activity at 0.5 µM ([7]; 500 nM): 114%
% Enzyme Activity (relative to DMSO controls) ([8]; 500 nM): 99.16%
remaining activity at 0.5 µM ([8]; 500 nM): 100%
% Enzyme Activity (relative to DMSO controls) ([9]; 500 nM): 93.13%
remaining activity at 0.5 µM ([9]; 500 nM): 95.2%
% Enzyme Activity (relative to DMSO controls) ([10]; 500 nM): 86.85%
remaining activity at 0.5 µM ([10]; 500 nM): 87%
